The source of these data is US9328104B2, “Selective androgen receptor modulators” (Pfizer Inc., priority 2012, dated 2016).

The target of this assay is T1, full length human Androgen Receptor (AR) (Homo sapiens, UniProt P10275).
T1 construct: transiently transfected in T225 cm^2 flasks with a full length human Androgen Receptor (AR) cDNA; expressed in transfected cells; host or cells: CV-1 cells (ATCC CCL-70), transiently transfected with AR cDNA in pcDNA3 and ARE-luciferase in pGL3
T1 sequence (P10275 1-920): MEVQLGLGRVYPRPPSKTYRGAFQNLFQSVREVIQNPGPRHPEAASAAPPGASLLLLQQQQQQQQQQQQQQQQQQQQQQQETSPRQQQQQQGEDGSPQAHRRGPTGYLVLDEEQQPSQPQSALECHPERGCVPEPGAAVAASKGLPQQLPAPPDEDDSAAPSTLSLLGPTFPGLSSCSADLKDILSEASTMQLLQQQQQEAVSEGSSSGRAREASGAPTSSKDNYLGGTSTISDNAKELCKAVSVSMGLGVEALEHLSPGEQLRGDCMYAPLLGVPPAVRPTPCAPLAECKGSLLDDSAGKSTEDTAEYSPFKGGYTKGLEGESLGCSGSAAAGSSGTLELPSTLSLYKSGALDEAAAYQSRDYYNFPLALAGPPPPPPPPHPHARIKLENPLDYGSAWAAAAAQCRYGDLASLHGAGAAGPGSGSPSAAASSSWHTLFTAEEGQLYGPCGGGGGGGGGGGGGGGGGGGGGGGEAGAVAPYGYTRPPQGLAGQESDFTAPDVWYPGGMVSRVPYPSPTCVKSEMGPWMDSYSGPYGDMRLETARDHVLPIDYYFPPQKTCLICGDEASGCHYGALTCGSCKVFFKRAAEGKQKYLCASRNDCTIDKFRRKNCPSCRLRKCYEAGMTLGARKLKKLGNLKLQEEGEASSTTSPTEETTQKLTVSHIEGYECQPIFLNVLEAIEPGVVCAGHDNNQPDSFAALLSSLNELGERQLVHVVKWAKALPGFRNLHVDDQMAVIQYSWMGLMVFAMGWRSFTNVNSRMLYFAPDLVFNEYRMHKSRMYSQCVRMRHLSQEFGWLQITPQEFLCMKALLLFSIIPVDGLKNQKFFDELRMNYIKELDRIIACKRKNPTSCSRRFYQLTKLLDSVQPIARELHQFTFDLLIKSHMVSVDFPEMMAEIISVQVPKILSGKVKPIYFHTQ
Description: Androgen Receptor-Mediated Transcriptional Assay (ARE-luciferase reporter in transiently transfected CV-1 cells). The class given is cell-based. As for the experimental part:
Androgen Receptor-Mediated Transcriptional Assay Summary
CV-1 cells (American Tissue Culture Collection cat# CCL-70) were expanded in Growth Media and transiently transfected in T225 cm^2 flasks with a full length human Androgen Receptor (AR) cDNA in the pcDNA3 expression vector and a human Androgen Response Element (ARE)-luciferase cDNA in the pGL3 vector (both from Invitrogen). DNA (μg) and Lipofectamine (μl) at a ratio of 1:3 were incubated with the cells in a total volume of 55 mL Basal Media for 4 hours. Cells were harvested by trypsinization and frozen back (−150° C. cryomed) at a concentration of 4.3 million cells/mL.
On the day of the assay, frozen cells were thawed and re-suspended in Re-suspension Media and plated at 40,000 cells/well (in 100 μL volume) in 96 well white plates and were incubated for at least 4 h at 37° C., 5% CO2. After incubation, cells were treated with the compounds to be screened. 10 mM stocks of the compounds were serially diluted 1:10 in 100% DMSO followed by an additional 1:100 dilution in Assay Media. These dilution series were added to the cell plates resulting in a further 1:10 dilution and a final % DMSO of 0.1%. The vehicle control wells also contained this dilution of DMSO and the positive control wells contained […] (DHT) as an AR agonist at final concentration of 0.3 nM in 0.1% DMSO. Cells were incubated for 16-18 hours at 37° C. and 5% CO2. Then the culture media was removed from and the cells were lysed in 20 μL of cell lysis reagent for 5 minutes at room temperature. 50 μL of luciferase reagent was added to each well and luminescence, over 5 seconds, was measured.
EC50 (half maximal effective concentration) was calculated from concentration series plots which generated sigmoidal curves. Xlfit software was used to plot the best fit of the % effect vs concentration and to calculate the EC50.
Reagents and Materials used in the Androgen Receptor-Mediated Transcriptional Assay include the following: • Growth Media—DMEM/high glucose—10% FBS: 500 ml phenol red DMEM/high glucose (Gibco, Grand Island N.Y., cat #10569-010), 10% non heat-inactivated Fetal Bovine Serum (FBS) (Atlanta Biologicals, Norcross Ga., cat #S-12450), 1% Nonessential Amino Acids (Gibco, cat #11140-050), 1% Penicillin-Streptomycin (Gibco, cat #15140-122) • Basal Media—phenol red free DMEM/high glucose (Gibco, cat #31053-028)+1% Na Pyruvate (Gibco, cat #11360-070), 1% Nonessential Amino Acids (Gibco, cat #11140-050), 1% GlutaMAX-I (Gibco, cat #35050-061) • Re-suspension Media—basal media+1% Penicillin-Streptomycin (Gibco, cat #15140-122) • Assay Media—basal media+5% charcoal stripped FBS (HyClone, Logan Utah, Cat #SH30068)+1% Penicillin-Streptomycin (Gibco, cat #15140-122) • Cell Lysis Reagent—Promega, Cat #PAE1531 • Luciferase Reagent—Promega, Cat #PAE1483
(A reporter such as luciferase makes a cellular process visible.)

Setting [1] is: CV-1 cells transfected with human AR and ARE-luciferase, 16-18 hours incubation, luminescence, read-out: EC50 Values for Compounds 1-22 from Androgen Receptor-Mediated Transcriptional Assay.

As usually defined, the EC50 is the midpoint of the concentration-response curve.

Read-outs that look alike come from different tables or passages of the source.

Compound `CCN1C[C@@H](C)CN(c2ccc3c(C#N)nccc3c2)S1(=O)=O` (single isomer, unassigned) [Compound 16] returned an EC50 of 262 nM.

Take `N#Cc1nccc2cc(N3[C@H](CCc4ccccc4)CNS3(=O)=O)ccc12` (single isomer, unassigned) [Compound 4]: the EC50 under setting [1] was 22 nM.

`N#Cc1nccc2cc(N3[C@H](CC(F)(F)F)CNS3(=O)=O)ccc12` (single isomer, unassigned) [Compound 3]: under setting [1], the EC50 is 79 nM. Same read-out and setting: next, `C[C@@H]1CNS(=O)(=O)N(c2ccc3c(C#N)nccc3c2)C1` [Compound 10, 6-[(4R)-4-methyl-1,1-dioxido-1,2,6-thiadiazinan-2-yl]isoquinoline-1-carbonitrile]: 0.4 nM.

Take `C[C@H](O)[C@H]1CC[C@@H](C)N1c1ccc2c(C#N)nccc2c1` (single isomer, unassigned) [Compound 39]: a half-maximal effect (EC50) was put at 37.3 nM. In the case of `N#Cc1nccc2cc(N3C(=O)CC[C@@H]3[C@H](O)C(F)(F)F)ccc12` (single isomer, unassigned) [Compound 32], the 50% effective concentration (EC50) was 84.3 nM.

For the compound `N#Cc1nccc2cc(N3C[C@H](c4ccccc4)CNS3(=O)=O)ccc12` [Compound 12], under setting [1], the EC50 came to 217 nM. In turn, `N#Cc1nccc2cc(N3CC4(CC4)CNS3(=O)=O)ccc12` [Compound 14, 6-(6,6-dioxido-6-thia-5,7-diazaspiro[2.5]oct-5-yl)isoquinoline-1-carbonitrile] yielded an EC50 of 22 nM.

The compound `CC[C@H]1CNS(=O)(=O)N1c1ccc2c(C#N)nccc2c1` (single isomer, unassigned) [Compound 2] gave an EC50 of 18 nM. The same measure, in the same setting: for `N#Cc1nccc2cc(N3CCC[C@H]3[C@@H](O)C(F)(F)F)ccc12` (single isomer, unassigned) [Compound 37] the value was 9.1 nM.

As to `C[C@H]1CNS(=O)(=O)N(c2ccc3c(C#N)nccc3c2)C1` [Compound 11, 6-[(4S)-4-methyl-1,1-dioxido-1,2,6-thiadiazinan-2-yl]isoquinoline-1-carbonitrile], under setting [1], the half-maximal effective concentration (EC50) worked out at 687 nM.

Consider `C[C@@H](Nc1ccc2c(C#N)nccc2c1)[C@H](O)C(F)(F)F` [Compound 23, 6-{[(2R,3S)-4,4,4-trifluoro-3-hydroxybutan-2-yl]amino}isoquinoline-1-carbonitrile], for which the EC50 was 5.1 nM. As for `C[C@H]1CN(C)S(=O)(=O)N1c1ccc2c(C#N)nccc2c1` [Compound 5], the EC50 under setting [1] amounted to 5 nM.

`Cc1ccc([C@H]2CNS(=O)(=O)N(c3ccc4c(C#N)nccc4c3)C2)cc1` (single isomer, unassigned) [Compound 18]: the EC50 under setting [1] was 20 nM. On the same count and under the same terms, next, `N#Cc1nccc2cc(N3[C@@H](c4ccc(Cl)cc4)CNS3(=O)=O)ccc12` (single isomer, unassigned) [Compound 7]: 22 nM. `C[C@H]1CC[C@@H]([C@H](O)C(F)(F)F)N1c1ccc2c(C#N)nccc2c1` (single isomer, unassigned) [Compound 38] displayed an EC50 of 187 nM. Still for that read-out and setting: for `C[C@H]1CNS(=O)(=O)N1c1ccc2c(C#N)nccc2c1` [Compound 1, 6-[(3S)-3-methyl-1,1-dioxido-1,2,5-thiadiazolidin-2-yl]isoquinoline-1-carbonitrile] the value was 15 nM; for `N#Cc1nccc2cc(N3CCCC[C@@H]3[C@H](O)C(F)(F)F)ccc12` (single isomer, unassigned) [Compound 29], 0.02 nM. As for “6-[(4S)-4-(3-methylphenyl)-1,1-dioxido-1,2,6-thiadiazinan-2-yl]isoquinoline-1-carbonitrile [Compound 20]”, under setting [1], the EC50 turned out to be 8 nM. Still for that read-out and setting: next, `CC1CCN(c2ccc3c(C#N)nccc3c2)S(=O)(=O)N1` (racemic) [Compound 17, 6-(5-methyl-1,1-dioxido-1,2,6-thiadiazinan-2-yl)isoquinoline-1-carbonitrile]: 16 nM. Take “6-{(2R,5R)-2-[(1R)-1-hydroxyethyl]-5-methylpyrrolidin-1-yl}isoquinoline-1-carbonitrile [Compound 31]”: the EC50 (CV-1 cells transfected with human AR and ARE-luciferase, 16-18 hours incubation, luminescence, read-out: EC50 Values for Compounds 23-39 from Androgen Receptor-Mediated Transcriptional Assay) was 474 nM. `C[C@H]1CNS(=O)(=O)N1c1ccc2c(C#N)cccc2c1` (single isomer, unassigned) [Compound 9] showed an EC50 of 4 nM. As to “6-[(4S)-4-ethyl-1,1-dioxido-1,2,6-thiadiazinan-2-yl]isoquinoline-1-carbonitrile [Compound 21]”, under setting [1], the EC50 worked out at 8 nM. On to `N#Cc1nccc2cc(N3CCCC[C@@H]3[C@@H](O)C(F)(F)F)ccc12` (single isomer, unassigned) [Compound 28], for which the EC50 was determined as 61.5 nM.

`N#Cc1nccc2cc(N3CCC[C@@H]3[C@@H](O)C(F)(F)F)ccc12` (single isomer, unassigned) [Compound 34] gave a 50% effective concentration (EC50) of 0.1 nM. Same read-out and setting: next, `N#Cc1nccc2cc(N3CCC[C@H]3[C@H](O)C(F)(F)F)ccc12` (single isomer, unassigned) [Compound 36]: 120 nM.

As to `C[C@H]1CCS(=O)(=O)N1c1ccc2c(C#N)nccc2c1` [Compound 8, 6-[(3S)-3-methyl-1,1-dioxido-1,2-thiazolidin-2-yl]isoquinoline-1-carbonitrile], the EC50 under setting [1] worked out at 271 nM. Still for that read-out and setting: for `N#Cc1nccc2cc(N3[C@H](c4cccc(C(F)(F)F)c4)CNS3(=O)=O)ccc12` (single isomer, unassigned) [Compound 6] the value was 10 nM; for `Cc1ccc([C@@H]2CNS(=O)(=O)N(c3ccc4c(C#N)nccc4c3)C2)cc1` (single isomer, unassigned) [Compound 19], 177 nM.

On to `C[C@@H]1CC[C@H]([C@@H](O)C(F)(F)F)N1c1ccc2c(C#N)nccc2c1` [Compound 30, 6-{(2R,5R)-2-methyl-5-[(1R)-2,2,2-trifluoro-1-hydroxyethyl]pyrrolidin-1-yl}isoquinoline-1-carbonitrile], for which the EC50 was determined as 0.1 nM. Same read-out and setting: next, `N#Cc1nccc2cc(N3CCC[C@@H]3[C@H](O)C(F)(F)F)ccc12` (single isomer, unassigned) [Compound 35]: 7.4 nM. Compound `N#Cc1nccc2cc(N3C(=O)CC[C@H]3[C@H](O)C(F)(F)F)ccc12` (single isomer, unassigned) [Compound 33] returned an EC50 of 231 nM. `CC1(C)CNS(=O)(=O)N(c2ccc3c(C#N)nccc3c2)C1` [Compound 13, 6-(4,4-dimethyl-1,1-dioxido-1,2,6-thiadiazinan-2-yl)isoquinoline-1-carbonitrile] came in with a half-maximal effective concentration (EC50) of 0.7 nM.
